Test results published in ChEMBL document CHEMBL4507265 (2021).

Tests used:
[1] = biological target: Acetylcholine receptor subunit alpha (Homo sapiens) (UniProt P02708); experiment: Inhibition of Nicotinic Acetylcholine D1, Bungarotoxin at 10 µM in the Eurofins-Panlabs radioligand binding assay (Eurofins_assay_258700); details: Compound concentration 10.0 uM
[2] = biological target: T1, Muscarinic acetylcholine receptor M1 (Homo sapiens) (UniProt P11229); details: Compound concentration 10.0 uM
T1 sequence (whole entry): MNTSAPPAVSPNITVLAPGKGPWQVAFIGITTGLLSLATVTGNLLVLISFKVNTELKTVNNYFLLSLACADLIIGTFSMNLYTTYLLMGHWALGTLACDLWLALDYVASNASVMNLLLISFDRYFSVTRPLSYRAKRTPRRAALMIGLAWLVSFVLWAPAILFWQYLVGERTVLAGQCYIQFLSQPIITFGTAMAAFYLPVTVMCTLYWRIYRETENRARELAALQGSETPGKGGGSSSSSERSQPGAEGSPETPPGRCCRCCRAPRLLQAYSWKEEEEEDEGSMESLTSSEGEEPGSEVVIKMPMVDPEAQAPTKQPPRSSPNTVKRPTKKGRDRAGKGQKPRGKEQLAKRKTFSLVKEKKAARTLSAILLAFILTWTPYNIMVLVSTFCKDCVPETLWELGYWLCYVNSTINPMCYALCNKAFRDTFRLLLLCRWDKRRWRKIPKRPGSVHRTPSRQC

[3] = biological target: Adenosine receptor A2a (Homo sapiens) (UniProt P29274); details: Compound concentration 10.0 uM
[4] = biological target: Purinergic P2Y (Rattus norvegicus) (UniProt O35811+Q9EPX4+P49651+Q63371+P41232+O35881+Q6GUG4); details: Compound concentration 10.0 uM
[5] = biological target: T2, Alpha-1A adrenergic receptor (Homo sapiens) (UniProt P35348); details: Rattus norvegicus; Compound concentration 10.0 uM
T2 sequence (whole entry): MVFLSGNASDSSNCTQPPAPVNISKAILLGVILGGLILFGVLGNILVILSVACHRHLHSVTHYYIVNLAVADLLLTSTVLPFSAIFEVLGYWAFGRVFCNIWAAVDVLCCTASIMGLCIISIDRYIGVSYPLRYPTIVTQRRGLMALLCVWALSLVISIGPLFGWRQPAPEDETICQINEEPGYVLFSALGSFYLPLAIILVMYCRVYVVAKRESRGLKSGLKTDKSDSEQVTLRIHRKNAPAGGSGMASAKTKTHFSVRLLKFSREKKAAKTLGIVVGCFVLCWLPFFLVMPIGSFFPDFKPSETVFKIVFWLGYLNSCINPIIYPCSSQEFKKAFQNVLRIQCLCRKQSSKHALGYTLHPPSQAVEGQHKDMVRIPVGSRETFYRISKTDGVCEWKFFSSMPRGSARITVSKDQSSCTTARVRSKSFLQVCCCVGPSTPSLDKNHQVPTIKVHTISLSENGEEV

[6] = biological target: Kappa-type opioid receptor (Homo sapiens) (UniProt P41145); details: Compound concentration 10.0 uM

Measured: inhibition

Acetylcholine receptor subunit alpha (Homo sapiens), sequence (P02708 whole entry): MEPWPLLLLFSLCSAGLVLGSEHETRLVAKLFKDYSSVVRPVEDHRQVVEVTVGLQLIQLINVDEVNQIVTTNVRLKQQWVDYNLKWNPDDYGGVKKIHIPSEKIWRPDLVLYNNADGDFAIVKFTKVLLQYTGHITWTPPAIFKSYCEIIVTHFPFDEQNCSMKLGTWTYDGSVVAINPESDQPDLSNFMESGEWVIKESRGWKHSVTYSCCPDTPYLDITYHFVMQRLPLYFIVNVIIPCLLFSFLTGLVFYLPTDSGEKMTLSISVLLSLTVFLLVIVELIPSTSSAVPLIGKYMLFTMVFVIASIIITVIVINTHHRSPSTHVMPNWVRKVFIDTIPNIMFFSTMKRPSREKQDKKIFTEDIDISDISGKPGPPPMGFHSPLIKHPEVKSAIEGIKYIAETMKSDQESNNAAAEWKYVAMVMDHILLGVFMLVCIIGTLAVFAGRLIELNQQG
Kappa-type opioid receptor (Homo sapiens), sequence (P41145 whole entry): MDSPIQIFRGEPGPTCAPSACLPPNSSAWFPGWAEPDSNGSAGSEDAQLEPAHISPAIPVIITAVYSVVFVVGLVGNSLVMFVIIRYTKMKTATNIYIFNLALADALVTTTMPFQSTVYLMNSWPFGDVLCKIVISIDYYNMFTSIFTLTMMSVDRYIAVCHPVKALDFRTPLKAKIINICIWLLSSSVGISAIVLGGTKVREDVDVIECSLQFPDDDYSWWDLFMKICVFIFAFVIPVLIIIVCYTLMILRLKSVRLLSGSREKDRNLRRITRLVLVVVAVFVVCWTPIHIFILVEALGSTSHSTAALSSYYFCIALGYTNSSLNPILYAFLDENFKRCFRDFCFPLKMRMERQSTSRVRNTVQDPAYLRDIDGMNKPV
Adenosine receptor A2a (Homo sapiens), sequence (P29274 whole entry): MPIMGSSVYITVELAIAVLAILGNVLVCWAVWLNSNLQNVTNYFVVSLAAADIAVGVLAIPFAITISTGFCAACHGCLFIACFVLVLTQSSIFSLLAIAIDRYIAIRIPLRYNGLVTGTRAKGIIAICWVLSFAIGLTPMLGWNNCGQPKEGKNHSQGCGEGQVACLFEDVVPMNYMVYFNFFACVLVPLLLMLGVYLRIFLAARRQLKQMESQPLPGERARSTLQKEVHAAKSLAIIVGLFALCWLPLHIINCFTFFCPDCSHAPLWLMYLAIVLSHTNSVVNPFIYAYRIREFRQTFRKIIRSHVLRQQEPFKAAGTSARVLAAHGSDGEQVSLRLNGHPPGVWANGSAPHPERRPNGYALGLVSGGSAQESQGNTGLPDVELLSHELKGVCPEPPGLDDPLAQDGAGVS

NS(=O)(=O)c1cc(NC(=O)Cc2ccccc2)ccc1Oc1cccc(Cl)c1 [BAY-1797]
inactive: [1] -4% | [2] -6% | [3] 14% | [4] 14% | [5] 16% | [6] 10%
